Reference: patent publication US20110178139A1, “Pyridoxamine for the Treatment of Diabetic Kidney Disease” (priority 2004, published 2011)

How the values were obtained:
[1] = system: patients with type 1 and type 2 DM and overt nephropathy; assay: Randomized, double-blind, placebo-controlled, multicenter trial (PYR206) of PYR 50 mg b.i.d. for six months; type: in vivo, human
Experimental: A randomized, double-blind, placebo-controlled, multicenter trial which examined the safety profile of pyridoxamine dihydrochloride (PYR) in patients with type 1 and type 2 DM and overt nephropathy was conducted. 128 patients (48 type 1, 80 type 2) at 32 sites were randomized to receive either PYR 50 mg twice a day (b.i.d) or placebo for six months, 58 patients in each group completed the study. Groups were well matched at baseline for age, race, gender, blood pressure, hemoglobin AlC (HbAlC), and angiotensin converting enzyme inhibitor (ACEI)/angiotensin receptor blocker (ARB) use.
Baseline characteristics of the patients included serum creatinine=1.27 mg/dL and urinary albumin excretion=868 mg/12 h in treatment, versus 1.33 mg/dL and 1055 mg/12 h in placebo groups (differences not significant, NS).
In addition, the urinary levels of TGF beta in the subjects completing the PYR206 study (combined type 1 and type 2 patients) were tested. This growth factor is an important and accepted marker of renal disease, since it initiates or controls a cascade of cellular changes (from diabetes and other diseases) that lead to mesangial expansion and eventually fibrosis in the kidney. […] This is strong evidence of the action of PYR in retarding or halting the nephropathy due to the diabetes.

[2] = system: diabetic nephropathy patients; assay: Separate study: six months of escalating doses of pyridoxamine dihydrochloride in addition to standard of care; type: in vivo, human
Experimental: In a separate study, diabetic nephropathy patients received six months of treatment of escalating doses of pyridoxamine dihydrochloride (50 mg, 100 mg, and 250 mg), administered orally via capsules twice daily as follows:
50 mg bid for 2 weeks, then if tolerated:
10 mg bid for 2 weeks, then if tolerated:
The study drug was administered in addition to standard of care therapy. The patient population consisted of male and female patients between 18 and 70 years of age with diabetic nephropathy associated with type 1 or type 2 diabetes, serum creatinine of […], and macroalbuminuria confirmed with baseline urinary albumin excretion≧300 mg/24 his.
84 patients received at least one dose of the study drug (57 pyridoxamine dihydrochloride; 27 placebo.
Baseline characteristics of the patients included serum creatinine of 1.91 mg/dL and urinary albumin excretion of 957 mg/12 h in treatment, versus 1.95 mg/dL and 1224 mg/12 h in placebo groups.

[3] = PYR 50 mg b.i.d., six months, no significant difference vs placebo
[4] = escalating doses 50, 100, 250 mg bid, six months, no significant difference vs placebo

In the case of `Cc1ncc(CO)c(CN)c1O.Cl.Cl` [PYR, pyridoxamine dihydrochloride], the serious adverse events [1, 3] was 11%, the “study discontinuation due to AE's” value [1, 3] was 6% and the treatment-related adverse events [1, 3] was 26%. The scored neurotoxicity testing ([1]; PYR 50 mg b.i.d., six months, vs placebo) was “No significant differences”, the “mean rate of rise in serum creatinine” value ([1]; all patients, 50 mg b.i.d., six months, p=0.0065 by ANOVA vs placebo) was 0.178 mg/dL/yr and the “rise in mean urinary albumin excretion rate” value ([1]; all patients, p=0.017, ANOVA vs placebo) was 122 mg/12 h/yr. The “decrease in urinary TGF beta levels (pg TGF/mg Cr)” value ([1]; combined type 1 and type 2 patients completing the study, six months, preliminary analysis, placebo increased 43%) was “about 24%”, the rise in albuminuria ([1]; patients with baseline HbAlC over 7.275%, p=0.0282, ANOVA) was “reversed” and the “rate of rise in serum creatinine” value ([1]; patients with baseline serum creatinine ≧1.3 mg/dL, p<0.0001 vs placebo) was 0.17 mg/dL/yr. The “rate of rise in serum creatinine” value ([1]; type 2 patients taking ACE-I or ARB with baseline serum creatinine ≧1.3 mg/dL (predefined subgroup), p<0.0057 vs placebo) was 0.138 mg/dL/yr, the “incidence of sensory system neurologic adverse events” value ([1]; vs placebo (Table 5)) was “significantly reduced” and the serious adverse events ([2]; escalating doses 50, 100, 250 mg bid, six months, higher rate than placebo (3.7%)) was 21.1%. The “study discontinuation due to AE's” value [2, 4] was 8.8%, the treatment-related adverse events [2, 4] was 35.1% and the “rate of rise in serum creatinine” value ([2]; type 2 patients taking ACE-I or ARB with baseline serum creatinine ≧1.3 mg/dL (predefined subgroup), p<0.0001 vs placebo) was 0.144 mg/dL/yr.
